Results reported in patent US20200384072A1, “THERAPY OF IONIZING RADIATION-INDUCED DISORDERS” (SCK-CEN, priority 2019, published 2020).

Assays:
TIME cells [1] = assay: Intracellular ROS, CM-H2DCFDA IncuCyte live cell imaging, TIME cells; type: cell-based, human; conditions: 100 μM TAT-Gap19, 0.1 Gy, 45 min p.i.
Procedure: In order to further assess intracellular ROS production, IncuCyte live cell imaging was used to have fast imaging in large number of replicates over multiple time points. TICAE and TIME cells were seeded in 96-well plate in 16 replicates at a density of 10000 cells/well. Three days later, cells reached 100% confluence. At 30 minutes before irradiation, a fresh MesoEndo Cell Growth Medium without phenol red (Sigma-Aldrich Co. LCC, Diegem, Belgium) supplemented with 10 μmol/L of the CM-H2DCFDA dye (Sigma-Aldrich Co. LCC, Diegem, Belgium) was added to the cells, with or without 100 μM TAT-Gap19 (Genosphere Biotechnologies, Paris, France). Fluorescence signals were measured at 45 min, 2 h and 3 h after irradiation (CM-H2DCFDA dye became saturated due to photoactivaton, and leaked outside the cells after this time) using the IncuCyte ZOOM® system (Essen BioScience, Ann Arbor, Mich., USA), 10× objective and FITC filter. […] Images were analysed making use of the software package provided by the manufacturer; we used a training set of images from different doses to define the image processing procedure. The so called Top-Hat background subtraction method was applied by measuring the radius of the fluorescence object (30 μm), and adjust a threshold of 1.5 (above the local background fluorescent intensity level), as described in IncuCyte™ Background Fluorescence Technical Note. […]

Cx43 hemichannels [2] = molecular target: T1, Cx43 hemichannels (Homo sapiens, UniProt P17302); assay: Propidium iodide dye uptake assay after irradiation, TIME cells; type: cell-based
T1 construct: endogenous in cells; host or cells: TICAE and TIME cells (human endothelial cell lines)
Source text: Hemichannel opening was also investigated by dye uptake studies making use of the hemichannel permeable fluorescent tracer propidium iodide (PI; MW 668.4 Da). In addition, dextran fluorescein 10 kDa dye was used to assess membrane integrity and occurrence of cell death. PI stains cells with open hemichannels, late apoptotic and necrotic cells, while dextran fluorescein only stains late apoptotic and necrotic cells. Therefore, PI-positive and dextran fluorescein-negative cells are a measure for hemichannel opening while dextran fluorescein-positive cells are a measure for dead cells.
TICAE and TIME cells were seeded in a 24-well plate at a density of 1.25×10^5 and 1.5×10^5 cells/well, respectively, in six biological replicates. Three days later, cells reached 100% confluence. Thirty minutes before irradiation, cells were refreshed with 1 ml medium alone or with medium supplemented with 100 μM TAT-Gap19 (Genosphere Biotechnologies, Paris, France). For fractionated irradiation, cells were refreshed with 1.5 ml medium/well. […] Finally, the fluorescence was measured using an IncuCyte ZOOM® system (Essen BioScience, Ann Arbor, Mich., USA) by using different channels (TRITC, FITC and phase contrast) and a 10× objective Fluorescence signal was normalized to cell number.

mice liver = conditions: mice treated with thioacetamide to induce liver fibrosis; cited from earlier work
[3] = system: non-alcoholic fatty liver mouse model; conditions: cited from earlier work
Cx43 hemichannels [4] = molecular target: T1, Cx43 hemichannels; assay: Extracellular ATP release after irradiation, TIME cells; type: cell-based
Procedure: Hemichannels are an ATP release pathway and we therefore determined extracellular ATP after irradiation. To that purpose, TICAE and TIME cells were seeded in a 96-well plate at a density of 1×10^5 cells/well and 0.3×10^5 cells/well, respectively, in six to eight biological replicates. Three days later, cells reached 100% confluence. At 30 minutes before irradiation, cells were refreshed with 100 μl medium alone or with medium supplemented with 100 μM TAT-Gap19 (Genosphere Biotechnologies, Paris, France) to block the Cx43 hemichannels. For fractionated irradiation, cells were refreshed with 150 μl medium/well. At different time points after irradiation (1, 6 and 72 h), 1:5 ATP assay mix dissolved in ATP mix dilution buffer (Sigma-Aldrich Co. LCC, Diegem, Belgium) was added to each well. Extracellular ATP release was assessed by measuring the luminescence signal received after oxidation of luciferin and ATP to oxyluciferin and AMP using the CLARIOstar® microplate reader (BMG Labtech, Temse, Belgium). Experiments were corrected for baseline ATP signal in medium in the absence or presence of TAT-Gap19.

TIME cells [5] = assay: Senescence-associated β-galactosidase CPRG assay, TIME cells; type: cell-based, human
Procedure: TICAE and TIME cells were seeded in 96 well plates at a density of 10000 cells/well in 16 replicates. Three days after, cells were at 100% confluent. At 30 minutes before X-ray exposure, the cells were refreshed with 150 μl medium alone or with medium supplemented with 100 μM TAT-Gap19 (Genosphere Biotechnologies, Paris, France). For 7 d and 9 d post irradiation experiments, the medium was refreshed once, while for 14 d post irradiation experiment the medium was refreshed twice with 200 μl medium alone or with medium supplemented with 100 μM TAT-Gap19. At 7, 9 and 14 days post irradiation, cell number was determined using an Incucyte® ZOOM life cell analysis system and related software (Essen Bioscience, Hertfordshire, United Kingdom). Afterwards, the senescence associated β-galactosidase activity in the cells was determined using the chlorophenol red β-D-galactopyranoside (CPRG) assay as described previously. The cells were washed with PBS and lysed using M-PER™ buffer (Thermo Fisher Scientific, Asse, Belgium). Subsequently, 1×CPRG substrate (2 mM Chloropenol Red β-D-galactopyranoside in CPRG assay buffer containing 50 mM KPO4, 1 mM MgCl2, pH 6) (Sigma-Aldrich, Overijse, Belgium) was added to each well and the plates incubated for 18 h at 37° C. without CO2. A CLARIOstar® microplate reader (BMG Labtech, Temse, Belgium) was used to measure the absorbance at 570 nm.

T1 sequence (P17302 whole entry): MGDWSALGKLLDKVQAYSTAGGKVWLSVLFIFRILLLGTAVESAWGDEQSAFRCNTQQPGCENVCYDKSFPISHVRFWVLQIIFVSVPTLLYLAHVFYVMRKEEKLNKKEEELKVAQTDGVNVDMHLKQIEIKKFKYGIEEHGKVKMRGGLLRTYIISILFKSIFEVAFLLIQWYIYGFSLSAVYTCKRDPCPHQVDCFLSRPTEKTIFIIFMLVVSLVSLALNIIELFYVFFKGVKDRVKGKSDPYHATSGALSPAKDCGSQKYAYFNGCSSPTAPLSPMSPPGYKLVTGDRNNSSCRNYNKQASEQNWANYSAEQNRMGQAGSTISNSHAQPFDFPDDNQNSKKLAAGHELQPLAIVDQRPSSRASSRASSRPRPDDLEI

Substance: TAT-Gap19: connexin mimetic peptide, amino-acids 128-136 of the CL of Cx43 (SEQ ID NO: 2), Gap19 linked to TAT sequence; Cx43 hemichannel inhibitor (YGRKKRRQRRRKQIEIKKFK)
- ROS production (IncuCyte) (TIME cells [1]): reduced ROS production only significantly for the 0.1 Gy dose
- radiation-induced PI dye uptake (Cx43 hemichannels [2]; 100 μM TAT-Gap19, fractionated 5 Gy, 72 h): had no effect
- radiation-induced PI dye uptake (Cx43 hemichannels [2]; 100 μM TAT-Gap19, single irradiation, 72 h p.i.): most clear and significant at the 72 h p.i. time point
- SOD activity in liver (mice liver): increased SOD activity
- IL-1B [3]: significantly decrease
- TNF-α [3]: significantly decrease
- radiation-induced ATP release (Cx43 hemichannels [4]; 100 μM TAT-Gap19, fractionated irradiation 0.1 and 5 Gy, 72 h p.i.): significantly inhibited the 5 Gy responses only
- radiation-induced ATP release (Cx43 hemichannels [4]; 100 μM TAT-Gap19, single 0.1 Gy, 1 h p.i.): no inhibition was observed
- radiation-induced ATP release (Cx43 hemichannels [4]; 100 μM TAT-Gap19, single 0.1 and 5 Gy, 1, 6, 72 h p.i., most cases): significantly inhibited the radiation-induced ATP release
- SA β-gal activity (TIME cells [5]; 100 μM TAT-Gap19, 0 Gy, 0.1 Gy and 5 Gy, 7 d p.i.): significantly reduced SA β-gal activity in all conditions
- SA β-gal activity (radiation responses) (TIME cells [5]; 100 μM TAT-Gap19, 0.1 Gy and 5 Gy, 14 d p.i.): significantly inhibited these responses
- SA β-gal activity (TIME cells [5]; 100 μM TAT-Gap19, 5 Gy, 9 d p.i.): significantly reduced SA β-gal activity
- SA β-gal activity (TIME cells [5]; 100 μM TAT-Gap19, control condition, 9 d p.i.): unexpectedly increased SA β-gal activity
